The source of these data is patent US20260083815A1, “COMPOSITION FOR INHIBITING TOXICITY OF NANOPARTICLES AND ENVIRONMENTALLY-DERIVED FINE PARTICLES” (AJOU UNIVERSITY INDUSTRY-ACADEMIC COOPERATION FOUNDATION, priority 2019, published 2026).

Test [1] has as its system microglia. The settings on record: 24 hours. How it is done: After the cells were suspended, the number of cells was measured and adjusted to the same cell number. The cells became luminescent according to the amount of ATP using a luciferin-based ATP luminescence measurement kit (Promega, USA), the luminescence degree was measured by a luminometer (LMaxII384; Molecular Devices, USA), and ChemiDoc™ Touch Gel Imaging System (Bio-Rad) was used for imaging.

Test [2] has as its system microglia. To be noted: 24 hours. The source holds these as a separate data set.
Description: Microglia cultured by the cell culture method of Example 1 was treated with 0.1 μg/μl of MNPs@SiO2(RITC) (average diameter of 50 nm), silica nanoparticles (SiO2, average diameter of 50 nm), silver nanoparticles (Ag, average diameter of 20 nm), gold nanoparticles (Au, average diameter of 10 nm), quantum dot nanoparticles (CdSe, average diameter of 10 nm), polystyrene microplastics (PS, average diameter of 2 μm and 100 nm), urban particulate matters (UPM, NIST 1648A), silica nanoparticles (SiO2, average diameter of 30 nm), titanium oxide nanoparticles (TiO2, average diameter of 40 nm), and carbon nanotubes (MWCNT, average diameter of 25 nm) for 24 hours, and then images were taken using fluorescence and optical microscopes (Axio Vert 200M fluorescence microscopy, Zeiss, Jena, Germany). Fluorescence of MNPs@SiO2(RITC) (average diameter of 50 nm) and quantum dot nanoparticles (CdSe, average diameter of 10 nm) which are fluorescent were photographed also.
The test system of test [3] is microglia. The settings on record: 0.1 μg/μl of each of 11 nanoparticles/particulate matters, 24 hours, formazan absorbance at 490 nm.
Description: Microglia cultured by the cell culture method of Example 1 were treated with 0.1 μg/μl of MNPs@SiO2(RITC) (average diameter of 50 nm), silica nanoparticles (SiO2, average diameter of 50 nm), silver nanoparticles (Ag, average diameter of 20 nm), gold nanoparticles (Au, average diameter of 10 nm), quantum dot nanoparticles (CdSe, average diameter of 10 nm), polystyrene microplastics (PS, average diameter of 2 μm and 100 nm), urban particulate matters (UPM, NIST 1648A), silica nanoparticles (SiO2, average diameter of 30 nm), titanium oxide nanoparticles (TiO2, average diameter of 40 nm), and carbon nanotubes (MWCNT, average diameter of 25 nm) for 24 hours, a kit (CellTilter 96 Aqueous One Solution Cell Proliferation Assay, Promega Corporation, Madison, WI) for analyzing cell viability based on the activity of succinic dehydrogenase was mixed, and the degree of formazan formation in accordance with the cell viability was measured with absorbance at 490 nm.

Where two headings read alike, the source gives them in different places.

With `O=C(O)CC(O)(CC(=O)O)C(=O)O` [citric acid], the “ATP reduction induced by MNPs@SiO2(RITC)” value in the test with microglia [1] (0.01 or 0.1 μg/μl MNPs@SiO2(RITC), luminescence) is reported as “inhibited”. Also, the “ATP increase compared to group treated only with MNPs@SiO2(RITC)” value in the test with microglia [1] (co-treated with 0.1 μg/μl MNPs@SiO2(RITC) (50 nm)) is reported as 30%. Besides, the “decrease in the cell number due to particles” value in the test on microglia [2] (0.1 μg/μl MNPs@SiO2(RITC)) was “mitigated”; with microglia [2] (0.1 μg/μl gold nanoparticles (Au, 10 nm)), “mitigated”; in the test on microglia [2] (0.1 μg/μl polystyrene microplastics (PS, 2 μm)), “mitigated”; in the test on microglia [2] (0.1 μg/μl polystyrene microplastics (PS, 100 nm)), “mitigated”; in the test on microglia [2] (0.1 μg/μl quantum dot nanoparticles (CdSe, 10 nm)), “mitigated”; in the test on microglia [2] (0.1 μg/μl silica carbon nanotubes (MWCNT, 25 nm)), “mitigated”. For the same compound, the “decrease in the cell number due to particles” value is given as “mitigated” in the test on microglia [2] (0.1 μg/μl silica nanoparticles (SiO2, 30 nm)); “mitigated” with microglia [2] (0.1 μg/μl silica nanoparticles (SiO2, 50 nm)); “mitigated” in the test on microglia [2] (0.1 μg/μl silver nanoparticles (Ag, 20 nm)); “mitigated” in the test with microglia [2] (0.1 μg/μl titanium oxide nanoparticles (TiO2, 40 nm)); “mitigated” with microglia [2] (0.1 μg/μl urban particulate matters (UPM, NIST 1648A)). Besides, the “reduction in cell viability due to nanoparticles and particulate matters” value in the test with microglia [3] was “mitigated”.
